Source: patent publication US20250197382A1, “KIF18A INHIBITOR” (WIGEN BIOMEDICINE TECHNOLOGY (SHANGHAI) CO., LTD., priority 2022, published 2025)

Molecular target: Recombinant human KIF18A (1-467His-tagged) protein (Homo sapiens (Human), UniProt Q8NI77)
Assay: KIF18A enzyme assay (microtubule-stimulated ATPase activity, ADP-Glo)
Assay type: biochemical
Conditions: 30 nM KIF18A, ATP 75 μM, read-out: inhibitory activity against KIF18A IC50
Experimental: Biological Example 1. Assay for In Vitro Inhibition of Enzymatic Activity of KIF18A by Compounds of the Present Invention
KIF18A enzyme assay: The enzymatic activity of KIF18A after treatment with the compounds was measured by an assay of microtubule-stimulated ATPase activity. ADP generated from the ATPase reaction was measured in this assay. The compounds were serially diluted 2-fold in DMSO over a range of 22 concentration points. Recombinant human KIF18A (1-467His-tagged) protein was expressed using a baculovirus system. Concentrations of KIF18A protein, microtubules, and ATP in the reaction were optimized for a standardized homogenous enzyme assay using an ADP-Glo kinase/ATPase assay kit. A reaction buffer [(15 mM Tris, pH 7.5), 10 mM MgCl2, 0.01% PluronicF-68, 1 μM paclitaxel, and 30 μg/mL pig microtubules] was prepared. The compounds and KIF18A protein (30 nM) were added to the prepared reaction buffer, and the reaction mixture was incubated at room temperature for 15 min, followed by addition of ATP (Km, 75 μM). The resulting reaction mixture was incubated at room temperature for another 15 min. 5 μL of ADP-Glo reagent and 2.5 μL of the reaction mixture were mixed and the resulting mixture was incubated at room temperature for 40 min. 10 μL of ADP-Glo detection reagent was added and the mixture was incubated at room temperature for 40 min. Luminescence was measured using a microplate reader and compared with that of the DMSO group, and then the inhibition percentages and IC50 values of the compounds were calculated.

Recombinant human KIF18A (1-467His-tagged) protein, sequence (Q8NI77 1-467): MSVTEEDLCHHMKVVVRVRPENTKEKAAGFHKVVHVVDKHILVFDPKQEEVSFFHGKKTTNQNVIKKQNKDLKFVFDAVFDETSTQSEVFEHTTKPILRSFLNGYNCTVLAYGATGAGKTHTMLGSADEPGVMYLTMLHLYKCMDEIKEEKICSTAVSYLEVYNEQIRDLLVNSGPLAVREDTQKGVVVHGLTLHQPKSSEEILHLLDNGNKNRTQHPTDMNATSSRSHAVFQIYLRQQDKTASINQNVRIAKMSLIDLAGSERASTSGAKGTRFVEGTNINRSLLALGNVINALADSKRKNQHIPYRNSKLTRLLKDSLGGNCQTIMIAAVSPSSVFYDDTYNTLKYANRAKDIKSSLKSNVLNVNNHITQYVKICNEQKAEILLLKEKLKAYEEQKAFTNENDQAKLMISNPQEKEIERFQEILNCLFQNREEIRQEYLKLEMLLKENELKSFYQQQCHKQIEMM
Recombinant human KIF18A (1-467His-tagged) protein, sequence (P02550 whole entry partner): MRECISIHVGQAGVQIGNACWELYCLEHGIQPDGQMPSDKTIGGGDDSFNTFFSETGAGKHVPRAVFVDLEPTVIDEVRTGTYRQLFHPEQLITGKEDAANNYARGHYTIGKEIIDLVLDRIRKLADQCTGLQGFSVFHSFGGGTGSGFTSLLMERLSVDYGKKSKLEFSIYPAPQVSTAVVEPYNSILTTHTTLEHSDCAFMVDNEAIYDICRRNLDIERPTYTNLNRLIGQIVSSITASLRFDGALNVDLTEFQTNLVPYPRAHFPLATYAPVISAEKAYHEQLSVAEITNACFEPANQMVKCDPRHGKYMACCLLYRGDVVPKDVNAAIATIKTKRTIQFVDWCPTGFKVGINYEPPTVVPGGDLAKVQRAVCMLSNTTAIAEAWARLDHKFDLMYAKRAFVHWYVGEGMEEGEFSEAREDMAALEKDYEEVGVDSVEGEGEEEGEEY
Recombinant human KIF18A (1-467His-tagged) protein, sequence (P02554 whole entry partner): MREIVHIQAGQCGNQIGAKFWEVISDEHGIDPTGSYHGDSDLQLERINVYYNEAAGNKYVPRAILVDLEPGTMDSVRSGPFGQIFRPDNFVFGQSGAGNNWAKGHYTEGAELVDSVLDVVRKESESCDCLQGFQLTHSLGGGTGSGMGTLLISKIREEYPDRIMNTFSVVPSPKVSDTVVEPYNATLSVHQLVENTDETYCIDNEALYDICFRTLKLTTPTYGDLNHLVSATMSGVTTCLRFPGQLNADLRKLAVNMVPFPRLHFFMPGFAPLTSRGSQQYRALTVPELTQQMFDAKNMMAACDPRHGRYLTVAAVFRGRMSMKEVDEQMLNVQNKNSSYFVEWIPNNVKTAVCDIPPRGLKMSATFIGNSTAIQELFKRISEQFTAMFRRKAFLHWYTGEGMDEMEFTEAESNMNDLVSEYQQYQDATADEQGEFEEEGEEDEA

Row | IC50 | SMILES
1 | ≤ 100 nM | O=C(Nc1ccc(S(=O)(=O)NCCO)cc1N1CCC2(CC1)CC2)c1cc2ccoc2c(OCCC(F)(F)F)n1 [Compound 245]
2 | ≤ 100 nM | CC(C)(CO)Nc1nc(NC(=O)c2ccc(S(=O)(=O)NCCO)cc2N2CCC3(CC2)CC3)cc2ccoc12 [Compound 219]
3 | ≤ 100 nM | C[C@@H]1CN(c2nc(C(=O)Nc3ccc(NS(=O)(=O)[C@H](C)CO)cc3N3CCC4(CC3)CC4)cc3ccoc23)CCO1 [Compound 240]
4 | ≤ 100 nM | C[C@@H](CO)NS(=O)(=O)c1ccc(C(=O)Nc2cc3ccn(C)c3c(N3CCC(F)(F)CC3)n2)c(N2CCC3(CC2)CC3)c1 [Compound 477]
5 | ≤ 100 nM | O=C(Nc1ccc(S(=O)(=O)NCCO)cc1N1CCC2(CC1)CC2)c1cc(OCCC(F)(F)F)c2occc2c1 [Compound 181]
6 | ≤ 100 nM | O=C(Nc1cc2scnc2c(N2CCC(F)(F)CC2)n1)c1ccc(NS(=O)(=O)CCO)cc1N1CCC2(CC1)CC2 [Compound 520]
7 | ≤ 100 nM | C[C@H]1CN(c2nc(C(=O)Nc3ccc(S(=O)(=O)NCCO)cc3N3CCC4(CC3)CC4)cc3ccoc23)CCO1 [Compound 243]
8 | ≤ 100 nM | O=C(Nc1cc2nc[nH]c2c(N2CCC(F)(F)CC2)n1)c1ccc(NS(=O)(=O)CCO)cc1N1CCC2(CC1)CC2 [Compound 526]
9 | ≤ 100 nM | O=C(Nc1cc2c(c(N3CCC(F)(F)CC3)c1)OCCC2)c1ccc(S(=O)(=O)NCCO)cc1N1CCC2(CC1)CC2 [Compound 546]
10 | ≤ 100 nM | C[C@@H](CO)S(=O)(=O)Nc1ccc(NC(=O)c2cc3c(c(N4CCC(F)(F)CC4)n2)OCC3)c(N2CCC3(CC2)CC3)c1 [Compound 109]
11 | ≤ 100 nM | C[C@H]1CN(c2cc(NC(=O)c3ccc(S(=O)(=O)NCCO)cc3N3CCC4(CC3)CC4)cc3ccn(C)c23)CCO1 [Compound 403]
12 | ≤ 100 nM | Cn1ccc2cc(C(=O)Nc3ccc(NS(=O)(=O)CCO)cc3N3CCC4(CC3)CC4)cc(NC(C)(C)CO)c21 [Compound 427]
13 | ≤ 100 nM | Cn1ccc2cc(NC(=O)c3ccc(S(=O)(=O)NCCO)cc3N3CCC4(CC3)CC4)cc(N3CCC(C)(F)C3)c21 (centres unmarked) [Compound 408]
14 | ≤ 100 nM | O=C(Nc1ccc(S(=O)(=O)NCCO)cc1N1CCC2(CC1)CC2)c1cc(N2CC3CC3C2)c2occc2c1 (centres unmarked) [Compound 186]
15 | ≤ 100 nM | Cn1ccc2cc(C(=O)Nc3ccc(S(=O)(=O)NCCO)cc3N3CCC4(CC3)CC4)nc(OC3CCC3)c21 [Compound 503]
16 | ≤ 100 nM | Cn1ccc2cc(NC(=O)c3ccc(S(=O)(=O)NCCO)cc3N3CCC4(CC3)CC4)cc(OC3CCC3)c21 [Compound 407]
17 | ≤ 100 nM | Cn1ccc2cc(NC(=O)c3ccc(NS(=O)(=O)CCO)cc3N3CCC4(CC3)CC4)nc(N3CC4CC4C3)c21 (centres unmarked) [Compound 458]
18 | ≤ 100 nM | CC(C)(CO)Nc1nc(C(=O)Nc2ccc(NS(=O)(=O)CCO)cc2N2CCC3(CC2)CC3)cc2c1OCC2 [Compound 107]
19 | ≤ 100 nM | C[C@H]1CN(c2nc(C(=O)Nc3ccc(S(=O)(=O)NCCO)cc3N3CCC4(CC3)CC4)cc3ccn(C)c23)CCO1 [Compound 499]
20 | ≤ 100 nM | C[C@@H](CO)NS(=O)(=O)c1ccc(NC(=O)c2cc3c(c(N4CCC(F)(F)CC4)n2)N(C)CC3)c(N2CCC3(CC2)CC3)c1 [Compound 381]
21 | ≤ 100 nM | O=C(Nc1ccc(NS(=O)(=O)CCO)cc1N1CCC2(CC1)CC2)c1cc2c(c(N3CC(F)(F)C3)n1)OCC2 [Compound 100]
22 | ≤ 100 nM | CC(C)(CO)Nc1nc(C(=O)Nc2ccc(S(=O)(=O)NCCO)cc2N2CCC3(CC2)CC3)cc2ccoc12 [Compound 251]
23 | ≤ 100 nM | Cn1ccc2cc(NC(=O)c3ccc(NS(=O)(=O)CCO)cc3N3CCC4(CC3)CC4)nc(N3CCOCC3)c21 [Compound 460]
24 | ≤ 100 nM | C[C@@H](CO)NS(=O)(=O)c1ccc(C(=O)Nc2cc3c(c(N4CCC(F)(F)CC4)n2)N(C)CC3)c(N2CCC3(CC2)CC3)c1 [Compound 349]
25 | ≤ 100 nM | CN1CCc2cc(NC(=O)c3ccc(S(=O)(=O)NCCO)cc3N3CCC4(CC3)CC4)cc(N3CCOCC3)c21 [Compound 284]
26 | ≤ 100 nM | C[C@@H]1CN(c2nc(C(=O)Nc3ccc(NS(=O)(=O)[C@@H](C)CO)cc3N3CCC4(CC3)CC4)cc3ccn(C)c23)CCO1 [Compound 495]
